For seven molecules, degraded, Drug metabolism and Stability results are on record in ChEMBL document CHEMBL4219093, “New 4-aryl-1,3,2-oxathiazolylium-5-olates: Chemical synthesis and photochemical stability of a novel series of S-nitrosothiols” (Bioorg Med Chem Lett, 2018).

Holding throughout (type): physicochemical
Data set [1] can be described thus: Drug metabolism assessed as ring opening in EtOH/H2O at 75 mM measured after 40 mins under dark condition by UV-vis spectrophotometric method. The note with it: for degraded at 40 min: EtOH/H2O, read-out: Drug metabolism; for Drug metabolism: 40 min, 75000 µM.
A short description of data set [2]: Photochemical stability of the compound in EtOH/H2O assessed as ring opening by measuring compound decomposition at 75 mM measured in presence of ambient daylight conditions after 40 mins by UV-vis spectrophotometric method. The note with it: for degraded at 40 min: EtOH/H2O, read-out: Drug degradation.
Data set [3] can be described thus: Photochemical stability of the compound assessed as compound decomposition in phosphate buffer at pH 7.4 exposed to daylight at 0.4 mM measured over 3 hrs by UV-Vis absorbance method. The note with it: read-out: Drug degradation.

Each structure is given as a SMILES string.

Turning to `[O-]c1on[s+]c1-c1cc(F)cc(F)c1`, in data set [1], the degraded at 40 min is 40 to 80%.
Take `[O-]c1on[s+]c1-c1ccc(F)cc1`: the figures for the degraded at 40 min in data set [1] and in data set [2] were 40 to 80% and 76%, respectively.
`[O-]c1on[s+]c1-c1ccc(F)cc1F`: the Drug metabolism result in data set [1] is on record as “Metabolite_Detected”. For the same molecule, the Stability result in data set [2] (40 min, 75000 µM) is “Stable”.
Regarding `[O-]c1on[s+]c1-c1ccccc1Cl`, the Drug metabolism result in data set [1] was “Metabolite_Detected”.
Turning to `[O-]c1on[s+]c1-c1cccc(Cl)c1`, the degraded at 40 min in data set [1] is 40 to 80%.
For the molecule `[O-]c1on[s+]c1-c1ccc(Cl)cc1`, the Drug metabolism result in data set [1] is recorded as “Metabolite_Detected”. Besides, the degraded at 40 min in data set [2] turned out to be 42%.
In the case of `[O-]c1on[s+]c1-c1ccccc1`, the degraded at 3 h, 400 µM in data set [3] came to 7%. In addition, in data set [1], the degraded at 40 min came to 48%.
